# Measurements published in PubChem BioAssay AID1745844 (Carcinogenic Potency Database (CPDB), 2022).
# Activity calls are given as the source filed them. No rule for the calls is given here.
# Tested on: rodent lifetime carcinogenesis bioassay, tumor incidence TD50
# Assay: chronic cancer bioassays in animals – CPDB, compiled studies (AID 1745844)
smiles,measurement,setting,value
O=[As]O,carcinogen call,"mouse, strain Charles River CD1, both sexes, in drinking water, site: any site (literature study), lesion: benign tumor, dosed 104 weeks, study length 104 weeks",negative (inactive)
same,carcinogen call,"mouse, strain Charles River CD1, both sexes, in drinking water, site: any site (literature study), lesion: malignant tumor, dosed 104 weeks, study length 104 weeks",negative (inactive)
same,carcinogen call,"mouse, strain Charles River CD1, both sexes, in drinking water, site: any site (literature study), lesion: several types, types named in the paper, dosed 104 weeks, study length 104 weeks",negative (inactive)
same,carcinogen call,"mouse, strain Charles River CD1, both sexes, in drinking water, site: liver, lesion: several types, types named in the paper, dosed 104 weeks, study length 104 weeks",negative (inactive)
same,carcinogen call,"mouse, strain Charles River CD1, both sexes, in drinking water, site: lung, lesion: several types, types named in the paper, dosed 104 weeks, study length 104 weeks",negative (inactive)
same,carcinogen call,"rat, strain Long-Evans BLU:(LE), both sexes, in drinking water, site: any site (literature study), lesion: malignant tumor, dosed 167 weeks, study length 167 weeks",negative (inactive)
same,carcinogen call,"rat, strain Long-Evans BLU:(LE), both sexes, in drinking water, site: any site (literature study), lesion: one or several types, types not named, dosed 167 weeks, study length 167 weeks",negative (inactive)
same,TD50,"rat, strain Long-Evans BLU:(LE), both sexes, in drinking water, site: liver, lesion: one or several types, types not named, dosed 167 weeks, study length 167 weeks",10.6 mg/kg/day (inactive)
same,TD50,"rat, strain Osborne-Mendel, both sexes, in feed, site: any site (literature study), lesion: malignant tumor, dosed 104 weeks, study length 104 weeks",626 mg/kg/day (inactive)
same,carcinogen call,"rat, strain Osborne-Mendel, both sexes, in feed, site: any site (literature study), lesion: several types, types named in the paper, dosed 104 weeks, study length 104 weeks",negative (inactive)
CCOP(=O)=O.CCOP(=O)=O.CCOP(=O)=O.[Al+3],TD50,"rat, strain Charles River CD1, females, in feed, site: kidney/pelvis, lesion: several types, types named in the paper, dosed 104 weeks, study length 104 weeks",14600 mg/kg/day
same,TD50,"rat, strain Charles River CD1, females, in feed, site: kidney/pelvis, lesion: transitional-cell carcinoma, dosed 104 weeks, study length 104 weeks",17800 mg/kg/day
same,TD50,"rat, strain Charles River CD1, females, in feed, site: kidney/pelvis, lesion: transitional-cell papilloma, dosed 104 weeks, study length 104 weeks",80400 mg/kg/day
same,TD50,"rat, strain Charles River CD1, females, in feed, site: urinary bladder, lesion: adenosquamous carcinoma, dosed 104 weeks, study length 104 weeks",110000 mg/kg/day
same,TD50,"rat, strain Charles River CD1, females, in feed, site: urinary bladder, lesion: several types, types named in the paper, dosed 104 weeks, study length 104 weeks",17600 mg/kg/day
same,TD50,"rat, strain Charles River CD1, females, in feed, site: urinary bladder, lesion: transitional-cell carcinoma, dosed 104 weeks, study length 104 weeks",23900 mg/kg/day
same,TD50,"rat, strain Charles River CD1, females, in feed, site: urinary bladder, lesion: transitional-cell papilloma, dosed 104 weeks, study length 104 weeks",452000 mg/kg/day
same,TD50,"rat, strain Charles River CD1, males, in feed, site: kidney/pelvis, lesion: several types, types named in the paper, dosed 104 weeks, study length 104 weeks",36400 mg/kg/day
same,TD50,"rat, strain Charles River CD1, males, in feed, site: kidney/pelvis, lesion: transitional-cell papilloma, dosed 104 weeks, study length 104 weeks",31800 mg/kg/day
same,TD50,"rat, strain Charles River CD1, males, in feed, site: urinary bladder, lesion: several types, types named in the paper, dosed 104 weeks, study length 104 weeks",3660 mg/kg/day
same,TD50,"rat, strain Charles River CD1, males, in feed, site: urinary bladder, lesion: transitional-cell carcinoma, dosed 104 weeks, study length 104 weeks",5000 mg/kg/day
same,TD50,"rat, strain Charles River CD1, males, in feed, site: urinary bladder, lesion: transitional-cell papilloma, dosed 104 weeks, study length 104 weeks",17200 mg/kg/day
CN(C)CCC(c1ccc(Cl)cc1)c1ccccn1 (centres undefined),carcinogen call,"mouse, strain B6C3F1, females, by gavage, site: any site (literature study), lesion: several types, types named in the paper, dosed 103 weeks, study length 104 weeks",negative (inactive)
same,TD50,"mouse, strain B6C3F1, males, by gavage, site: adrenal capsule, lesion: adenoma, NOS, dosed 103 weeks, study length 104 weeks",84 mg/kg/day (inactive)
same,TD50,"mouse, strain B6C3F1, males, by gavage, site: any site (literature study), lesion: several types, types named in the paper, dosed 103 weeks, study length 104 weeks",54.1 mg/kg/day
same,TD50,"mouse, strain B6C3F1, males, by gavage, site: liver, lesion: hepatocellular adenoma + hepatocellular carcinoma + neoplastic nodule, dosed 103 weeks, study length 104 weeks",101 mg/kg/day
same,TD50,"mouse, strain B6C3F1, males, by gavage, site: subcutaneous tissue, lesion: fibrosarcoma + fibroma + neurofibrosarcoma + sarcoma, NOS, dosed 103 weeks, study length 104 weeks",94.7 mg/kg/day
same,TD50,"mouse, strain B6C3F1, males, by gavage, site: subcutaneous tissue, lesion: fibrosarcoma + neurofibrosarcoma + sarcoma, NOS, dosed 103 weeks, study length 104 weeks",95.2 mg/kg/day
same,TD50,"mouse, strain B6C3F1, males, by gavage, site: subcutaneous tissue, lesion: fibrosarcoma, dosed 103 weeks, study length 104 weeks",140 mg/kg/day
same,carcinogen call,"rat, strain Fischer 344, females, by gavage, site: any site (literature study), lesion: several types, types named in the paper, dosed 103 weeks, study length 104 weeks",negative (inactive)
same,TD50,"rat, strain Fischer 344, females, by gavage, site: liver, lesion: hepatocellular adenoma + hepatocellular carcinoma + neoplastic nodule, dosed 103 weeks, study length 104 weeks",3180 mg/kg/day
same,carcinogen call,"rat, strain Fischer 344, females, in feed, site: liver, lesion: neoplastic nodule, dosed 106 weeks, study length 128 weeks",negative (inactive)
same,carcinogen call,"rat, strain Fischer 344, males, by gavage, site: any site (literature study), lesion: several types, types named in the paper, dosed 103 weeks, study length 104 weeks",negative (inactive)
same,TD50,"rat, strain Fischer 344, males, by gavage, site: liver, lesion: hepatocellular adenoma + hepatocellular carcinoma + neoplastic nodule, dosed 103 weeks, study length 104 weeks",208 mg/kg/day
same,carcinogen call,"rat, strain Fischer 344, males, in feed, site: liver, lesion: neoplastic nodule, dosed 106 weeks, study length 128 weeks",negative (inactive)
Clc1nc(Cl)nc(Nc2ccccc2Cl)n1,TD50,"mouse, strain B6C3F1, females, in feed, site: any site (literature study), lesion: several types, types named in the paper, dosed 103 weeks, study length 107 weeks",99.2 mg/kg/day (inactive)
same,TD50,"mouse, strain B6C3F1, females, in feed, site: liver, lesion: hepatocellular adenoma + hepatocellular carcinoma + neoplastic nodule, dosed 103 weeks, study length 107 weeks",2550 mg/kg/day
same,TD50,"mouse, strain B6C3F1, females, in feed, site: lung, lesion: alveolar/bronchiolar adenoma + alveolar/bronchiolar carcinoma, dosed 103 weeks, study length 107 weeks",1690 mg/kg/day
same,carcinogen call,"mouse, strain B6C3F1, males, in feed, site: any site (literature study), lesion: several types, types named in the paper, dosed 103 weeks, study length 107 weeks",negative (inactive)
same,carcinogen call,"rat, strain Fischer 344, females, in feed, site: any site (literature study), lesion: several types, types named in the paper, dosed 103 weeks, study length 104 weeks",negative (inactive)
same,TD50,"rat, strain Fischer 344, females, in feed, site: liver, lesion: hepatocellular adenoma + hepatocellular carcinoma + neoplastic nodule, dosed 103 weeks, study length 104 weeks",1050 mg/kg/day
same,TD50,"rat, strain Fischer 344, males, in feed, site: any site (literature study), lesion: several types, types named in the paper, dosed 103 weeks, study length 104 weeks",246 mg/kg/day (inactive)
O=C1N(CCO)CCN1N=Cc1ccc([N+](=O)[O-])o1,TD50,"rat, strain Sprague-Dawley, females, in feed, site: any site (literature study), lesion: several types, types named in the paper, dosed 46 weeks, study length 66 weeks",18 mg/kg/day
same,TD50,"rat, strain Sprague-Dawley, females, in feed, site: mammary gland, lesion: adenocarcinoma, dosed 46 weeks, study length 66 weeks",16.7 mg/kg/day
